According to ChEMBL document CHEMBL1201862, “PubChem BioAssay data set” (2004):
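Interpolation was linear, between the two tested concentrations surrounding the appropriate level; five concentrations were tested over 48 hours in 96-well plates. Abbreviation: GI50, concentration required for 50% inhibition of growth.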 Active and inactive are the calls of the source. No stated cut-off is given here; in the data, active = GI50 up to about 1.1 µM and inactive = higher. Where a SMILES comes first, the peptide text is derived from it. [ ]: non-standard residue; d: D form. The star is where a group is joined. ξ: configuration not given here. NMeF = CN[CH](Cc1ccccc1)C(=O)O; ξNMe2Val = CC(C)C(C(=O)*)N(C)C; NMeV = CN[CH](C(=O)O)C(C)C; OtBu = CC(C)(C)O*

Columns and labels:
Experiment in all cases: inhibition of tumour cell growth, NCI panel, 48 h
DLD-1 = tested on: DLD-1
DMS-114 = tested on: DMS-114
DMS-273 = tested on: DMS-273
HOP-18 = tested on: HOP-18
XF498 = tested on: XF498
LXFL 529 = tested on: LXFL 529
SNB-78 = tested on: SNB-78
KM-20L2 = tested on: KM-20L2
RXF 631 = tested on: RXF 631

SMILES | GI50 (DLD-1) | GI50 (DMS-114) | GI50 (DMS-273) | GI50 (HOP-18) | GI50 (XF498) | GI50 (LXFL 529) | GI50 (SNB-78) | GI50 (KM-20L2) | GI50 (RXF 631)
Cc1nc(N)nc(CCC(=O)Nc2cccc(C(F)(F)F)c2)c1-c1ccc(Cl)cc1 | > 100 µM (inactive) | > 100 µM (inactive) | > 100 µM (inactive) | > 100 µM (inactive) | > 100 µM (inactive) | > 100 µM (inactive) | > 100 µM (inactive) | > 100 µM (inactive) | > 100 µM (inactive)
COC(=O)C12C3C4C1C1C2C3C41I (centres undefined) | > 100 µM (inactive) | > 100 µM (inactive) | – | > 100 µM (inactive) | > 100 µM (inactive) | > 100 µM (inactive) | > 100 µM (inactive) | > 100 µM (inactive) | > 100 µM (inactive)
NC(=O)N/N=C(\CC1OC(=O)c2ccccc21)c1ccc([N+](=O)[O-])cc1 (centres undefined) | 22.4 µM (inactive) | – | 28.1 µM (inactive) | – | 26.9 µM (inactive) | 27.9 µM (inactive) | – | 29.2 µM (inactive) | –
CC(=O)NC1=C(NCC(C)C)C(=O)c2ccccc2C1=O | 19 µM (inactive) | 14.7 µM (inactive) | 14.4 µM (inactive) | 12.8 µM (inactive) | 14 µM (inactive) | 16.1 µM (inactive) | 31.1 µM (inactive) | 21.2 µM (inactive) | –
O=S1(=O)COc2ccccc2-c2ncncc21 | > 100 µM (inactive) | > 100 µM (inactive) | – | > 100 µM (inactive) | – | > 100 µM (inactive) | > 100 µM (inactive) | > 100 µM (inactive) | > 100 µM (inactive)
COC(=O)C1Cc2c(n(Cc3ccccc3)c3ccccc23)C(CCC(=O)O)N1C(C)C (centres undefined) | > 100 µM (inactive) | > 100 µM (inactive) | > 100 µM (inactive) | > 100 µM (inactive) | – | > 100 µM (inactive) | > 100 µM (inactive) | > 100 µM (inactive) | > 100 µM (inactive)
CNC(=O)NCCN1N=C(C)/C(=C\c2ccccc2)CC1=O | > 100 µM (inactive) | – | > 100 µM (inactive) | – | > 100 µM (inactive) | > 100 µM (inactive) | > 100 µM (inactive) | – | > 100 µM (inactive)
CC[C@H]1CNC(=O)CC1CC(=O)OC (some centres undefined) | > 100 µM (inactive) | > 100 µM (inactive) | > 100 µM (inactive) | – | – | – | > 100 µM (inactive) | – | > 100 µM (inactive)
N#[N+]c1ccccc1Sc1ccc(Cl)cc1 | > 100 µM (inactive) | 48.1 µM (inactive) | > 100 µM (inactive) | – | > 100 µM (inactive) | > 100 µM (inactive) | > 100 µM (inactive) | > 100 µM (inactive) | 67.9 µM (inactive)
C[C@]12CC(C=O)C(=O)C(O)=C1CC[C@@H]1C2CC[C@@]2(C)C1CC[C@]2(C)O (some centres undefined) | 8.55 µM (inactive) | 16.5 µM (inactive) | 21.6 µM (inactive) | – | 18.2 µM (inactive) | 16.6 µM (inactive) | 16.5 µM (inactive) | 22 µM (inactive) | 25.6 µM (inactive)
COc1cc2cnc3c4ccccc4ccc3c2cc1OC | > 100 µM (inactive) | > 100 µM (inactive) | – | – | > 100 µM (inactive) | > 100 µM (inactive) | > 100 µM (inactive) | > 100 µM (inactive) | –
O=C1C2[C@@H](C(=O)N1c1ccc(Br)cc1)C13C(=CC2([N+](=O)[O-])[C@@H]2C(=O)N(c4ccc(Br)cc4)C(=O)[C@@H]21)c1ccccc1N3c1ccccc1 (some centres undefined) | > 100 µM (inactive) | > 100 µM (inactive) | – | > 100 µM (inactive) | 39.3 µM (inactive) | – | > 100 µM (inactive) | – | > 100 µM (inactive)
C/C(=C1/CCC/C(=C(/C)c2ccccc2)C1=O)c1ccccc1 | 43.4 µM (inactive) | 21.7 µM (inactive) | 32 µM (inactive) | > 100 µM (inactive) | 30.6 µM (inactive) | 43.1 µM (inactive) | 36.5 µM (inactive) | 40.5 µM (inactive) | –
CN(C)/C=N\c1ccn(CCO)c(=O)n1 | > 100 µM (inactive) | > 100 µM (inactive) | > 100 µM (inactive) | > 100 µM (inactive) | – | > 100 µM (inactive) | > 100 µM (inactive) | > 100 µM (inactive) | > 100 µM (inactive)
NCCCSCC(=O)O | – | > 100 µM (inactive) | > 100 µM (inactive) | – | – | > 100 µM (inactive) | > 100 µM (inactive) | > 100 µM (inactive) | –
CC(C)C(C(=O)N(C)C(Cc1ccccc1)C(=O)N(C)C(C(=O)N(C)C(C(=O)N1CCCC1C(=O)OC(C)(C)C)C(C)C)C(C)C)N(C)C (centres undefined) (ξNMe2Val-[NMeF][NMeV][NMeV]P-OtBu; configuration not given here) | – | 31.7 µM (inactive) | 21 µM (inactive) | – | 30.8 µM (inactive) | 31.8 µM (inactive) | – | 20.8 µM (inactive) | –
CCc1cc(Cc2cc(Cl)c(NC(=O)C(=O)C3NC(=O)NC3=O)c(CC)c2)cc(Cl)c1NC(=O)C(=O)C1NC(=O)NC1=O (centres undefined) | – | 26.9 µM (inactive) | 20.4 µM (inactive) | > 100 µM (inactive) | – | 45.1 µM (inactive) | 75.7 µM (inactive) | 33.9 µM (inactive) | –
CC(C)N1CCC2(CC1)NNc1ncccc1-n1cccc12 | > 100 µM (inactive) | > 100 µM (inactive) | > 100 µM (inactive) | > 100 µM (inactive) | > 100 µM (inactive) | – | > 100 µM (inactive) | – | –
CC(C)(C)OC(=O)N1CC(C)(C)N2C(=O)C3(CCCO3)C12 (centres undefined) | > 100 µM (inactive) | > 100 µM (inactive) | 37.8 µM (inactive) | > 100 µM (inactive) | – | > 100 µM (inactive) | > 100 µM (inactive) | > 100 µM (inactive) | –
CCOC(=O)C1(C(=O)OCC)CC=C(C)CC12C(=O)Nc1ccccc12 (centres undefined) | > 100 µM (inactive) | > 100 µM (inactive) | > 100 µM (inactive) | > 100 µM (inactive) | > 100 µM (inactive) | > 100 µM (inactive) | – | > 100 µM (inactive) | –
O=C(Nc1c(O)[nH]c(=S)[nH]c1=O)c1ccc2ccccc2n1 | > 100 µM (inactive) | > 100 µM (inactive) | – | > 100 µM (inactive) | – | > 100 µM (inactive) | > 100 µM (inactive) | > 100 µM (inactive) | > 100 µM (inactive)
CC[C@]12C=CCN3CCC4(c5cc([C@@]6(C(=O)OC)CC7CN(CCc8c6[nH]c6ccccc86)C[C@@H]6CCC[C@H]76)c(OC)cc5N(C)C4[C@](O)(C(=O)OC)C1OC(C)=O)C32 (some centres undefined) | 0.494 µM (active) | 0.225 µM (active) | – | – | – | 0.257 µM (active) | 0.237 µM (active) | 0.126 µM (active) | –
Cc1ccccc1-c1cc(=O)c2cc(C)c(C)c(C(=O)O)c2o1 | > 100 µM (inactive) | > 100 µM (inactive) | > 100 µM (inactive) | > 100 µM (inactive) | 71.1 µM (inactive) | > 100 µM (inactive) | > 100 µM (inactive) | > 100 µM (inactive) | > 100 µM (inactive)
Cc1ccc(S(=O)(=O)N2CCCCC2CCO)cc1 (centres undefined) | > 100 µM (inactive) | > 100 µM (inactive) | > 100 µM (inactive) | > 100 µM (inactive) | – | > 100 µM (inactive) | > 100 µM (inactive) | > 100 µM (inactive) | –
